± gives the expanded uncertainty stated by the source.
Experiment: xn = mol fraction of the nth substance listed
Conditions: for surface tension liquid-gas: Wilhelmy-plate method; for mass density: 100 kPa, Liquid, Vibrating tube method

CC(O)CO (stereo not given) [1,2-propanediol] + CC(C)O
Conditions	mass density, 298.15 K [kg/m3]	mass density, 308.15 K [kg/m3]	mass density, 318.15 K [kg/m3]	mass density, 328.15 K [kg/m3]	surface tension liquid-gas, 298.15 K [mN/m]	surface tension liquid-gas, 308.15 K [mN/m]	surface tension liquid-gas, 318.15 K [mN/m]	surface tension liquid-gas, 328.15 K [mN/m]
x2 = 0	1032.69 ± 0.05	1025.21 ± 0.05	1017.51 ± 0.04	1009.78 ± 0.04	35.74 ± 0.2	35.35 ± 0.2	34.96 ± 0.2	34.6 ± 0.2
x2 = 0.05	1020.3 ± 0.07	1012.75 ± 0.07	1005.08 ± 0.06	997.4 ± 0.06	32.86 ± 0.2	32.56 ± 0.2	32.35 ± 0.2	32.15 ± 0.2
x2 = 0.1	1007.84 ± 0.07	1000.22 ± 0.06	992.51 ± 0.07	984.7 ± 0.07	31.27 ± 0.2	30.98 ± 0.2	30.74 ± 0.2	30.54 ± 0.2
x2 = 0.15	995.3 ± 0.06	987.63 ± 0.07	979.84 ± 0.07	971.99 ± 0.07	30.1 ± 0.2	29.77 ± 0.2	29.48 ± 0.2	29.26 ± 0.2
x2 = 0.2	982.74 ± 0.07	974.98 ± 0.07	967.11 ± 0.07	959.2 ± 0.07	29.09 ± 0.2	28.74 ± 0.2	28.42 ± 0.2	28.18 ± 0.2
x2 = 0.25	970.17 ± 0.07	962.34 ± 0.07	954.39 ± 0.07	946.41 ± 0.08	28.21 ± 0.2	27.85 ± 0.2	27.51 ± 0.2	27.25 ± 0.2
x2 = 0.3	957.54 ± 0.07	949.69 ± 0.07	941.69 ± 0.08	933.61 ± 0.08	27.43 ± 0.2	27.04 ± 0.2	26.68 ± 0.2	26.4 ± 0.2
x2 = 0.35	944.87 ± 0.08	936.95 ± 0.08	928.9 ± 0.08	920.73 ± 0.08	26.72 ± 0.2	26.31 ± 0.2	25.94 ± 0.2	25.64 ± 0.2
x2 = 0.4	932.21 ± 0.08	924.2 ± 0.08	916.09 ± 0.08	907.91 ± 0.09	26.06 ± 0.2	25.64 ± 0.2	25.25 ± 0.2	24.93 ± 0.2
x2 = 0.45	919.52 ± 0.08	911.47 ± 0.09	903.3 ± 0.09	895.1 ± 0.09	25.43 ± 0.2	25.01 ± 0.2	24.64 ± 0.2	24.3 ± 0.2
x2 = 0.5	906.84 ± 0.09	898.7 ± 0.09	890.5 ± 0.09	882.26 ± 0.1	24.89 ± 0.2	24.47 ± 0.2	24.05 ± 0.2	23.71 ± 0.2
x2 = 0.55	894.16 ± 0.09	885.97 ± 0.09	877.7 ± 0.1	869.44 ± 0.1	24.39 ± 0.2	23.94 ± 0.2	23.52 ± 0.2	23.16 ± 0.2
x2 = 0.6	881.5 ± 0.1	873.25 ± 0.1	865 ± 0.1	856.69 ± 0.1	23.89 ± 0.2	23.44 ± 0.2	23.01 ± 0.2	22.64 ± 0.2
x2 = 0.65	868.82 ± 0.1	860.56 ± 0.1	852.29 ± 0.1	843.93 ± 0.11	23.43 ± 0.2	22.95 ± 0.2	22.51 ± 0.2	22.12 ± 0.2
x2 = 0.7	856.16 ± 0.1	847.8 ± 0.11	839.59 ± 0.11	831.21 ± 0.11	22.99 ± 0.2	22.49 ± 0.2	22.03 ± 0.2	21.62 ± 0.2
x2 = 0.75	843.49 ± 0.11	835.09 ± 0.11	826.8 ± 0.11	818.53 ± 0.12	22.58 ± 0.2	22.04 ± 0.2	21.56 ± 0.2	21.13 ± 0.2
x2 = 0.8	830.89 ± 0.11	822.4 ± 0.12	813.99 ± 0.12	805.71 ± 0.12	22.2 ± 0.2	21.63 ± 0.2	21.11 ± 0.2	20.65 ± 0.2
x2 = 0.85	818.33 ± 0.12	809.75 ± 0.12	801.22 ± 0.12	792.81 ± 0.13	21.82 ± 0.2	21.21 ± 0.2	20.66 ± 0.2	20.16 ± 0.2
x2 = 0.9	805.84 ± 0.12	797.18 ± 0.12	788.63 ± 0.13	780.09 ± 0.13	21.47 ± 0.2	20.82 ± 0.2	20.23 ± 0.2	19.68 ± 0.2
x2 = 0.95	793.45 ± 0.12	784.7 ± 0.13	776.1 ± 0.13	767.47 ± 0.13	21.12 ± 0.2	20.43 ± 0.2	19.8 ± 0.2	19.21 ± 0.2

CC(O)CO (stereo not given) [1,2-propanediol] + O
Conditions	mass density, 298.15 K [kg/m3]	mass density, 308.15 K [kg/m3]	mass density, 318.15 K [kg/m3]	mass density, 328.15 K [kg/m3]	surface tension liquid-gas, 298.15 K [mN/m]	surface tension liquid-gas, 308.15 K [mN/m]	surface tension liquid-gas, 318.15 K [mN/m]	surface tension liquid-gas, 328.15 K [mN/m]
x1 = 0.05	1011.79 ± 0.07	1007.53 ± 0.06	1002.61 ± 0.06	997.16 ± 0.06	56.18 ± 0.21	54.93 ± 0.21	53.89 ± 0.21	52.6 ± 0.21
x1 = 0.1	1022.73 ± 0.06	1017.48 ± 0.05	1011.69 ± 0.05	1005.39 ± 0.05	50.94 ± 0.2	49.9 ± 0.2	48.9 ± 0.2	47.83 ± 0.2
x1 = 0.15	1030.33 ± 0.05	1024.23 ± 0.05	1017.73 ± 0.05	1010.88 ± 0.05	47.41 ± 0.2	46.53 ± 0.2	45.71 ± 0.2	44.66 ± 0.2
x1 = 0.2	1035.27 ± 0.05	1028.47 ± 0.05	1021.65 ± 0.05	1014.32 ± 0.05	45.19 ± 0.2	44.36 ± 0.2	43.45 ± 0.2	42.52 ± 0.2
x1 = 0.25	1038.27 ± 0.05	1031.17 ± 0.05	1023.85 ± 0.05	1016.27 ± 0.04	43.64 ± 0.2	42.89 ± 0.2	42.15 ± 0.2	41.17 ± 0.2
x1 = 0.3	1039.85 ± 0.05	1032.55 ± 0.05	1025.01 ± 0.05	1017.25 ± 0.04	42.6 ± 0.2	41.92 ± 0.2	41.19 ± 0.2	40.38 ± 0.2
x1 = 0.35	1040.55 ± 0.05	1033.05 ± 0.05	1025.42 ± 0.05	1017.54 ± 0.04	41.43 ± 0.2	40.86 ± 0.2	40.19 ± 0.2	39.49 ± 0.2
x1 = 0.4	1040.6 ± 0.05	1033.02 ± 0.05	1025.34 ± 0.05	1017.47 ± 0.04	40.47 ± 0.2	39.78 ± 0.2	39.24 ± 0.2	38.57 ± 0.2
x1 = 0.45	1040.28 ± 0.05	1032.76 ± 0.05	1025.05 ± 0.05	1017.1 ± 0.04	39.44 ± 0.2	38.89 ± 0.2	38.36 ± 0.2	37.8 ± 0.2
x1 = 0.5	1039.83 ± 0.05	1032.3 ± 0.05	1024.54 ± 0.05	1016.59 ± 0.04	38.76 ± 0.2	38.27 ± 0.2	37.73 ± 0.2	37.19 ± 0.2
x1 = 0.55	1039.24 ± 0.05	1031.7 ± 0.05	1023.93 ± 0.05	1016 ± 0.04	37.95 ± 0.2	37.5 ± 0.2	37.07 ± 0.2	36.55 ± 0.2
x1 = 0.6	1038.53 ± 0.05	1031.03 ± 0.05	1023.29 ± 0.05	1015.39 ± 0.04	37.4 ± 0.2	36.94 ± 0.2	36.63 ± 0.2	36.15 ± 0.2
x1 = 0.65	1037.84 ± 0.05	1030.31 ± 0.05	1022.58 ± 0.05	1014.69 ± 0.04	36.98 ± 0.2	36.57 ± 0.2	36.15 ± 0.2	35.75 ± 0.2
x1 = 0.7	1037.09 ± 0.05	1029.56 ± 0.05	1021.87 ± 0.05	1014 ± 0.04	36.8 ± 0.2	36.35 ± 0.2	35.89 ± 0.2	35.53 ± 0.2
x1 = 0.75	1036.33 ± 0.05	1028.81 ± 0.05	1021.11 ± 0.05	1013.3 ± 0.04	36.62 ± 0.2	36.24 ± 0.2	35.79 ± 0.2	35.32 ± 0.2
x1 = 0.8	1035.57 ± 0.05	1028.06 ± 0.05	1020.37 ± 0.05	1012.54 ± 0.04	36.44 ± 0.2	36.1 ± 0.2	35.66 ± 0.2	35.17 ± 0.2
x1 = 0.85	1034.81 ± 0.05	1027.32 ± 0.05	1019.61 ± 0.05	1011.8 ± 0.04	36.26 ± 0.2	35.94 ± 0.2	35.52 ± 0.2	35.04 ± 0.2
x1 = 0.9	1034.08 ± 0.05	1026.59 ± 0.05	1018.9 ± 0.05	1011.06 ± 0.04	36.08 ± 0.2	35.76 ± 0.2	35.4 ± 0.2	34.88 ± 0.2
x1 = 0.95	1033.35 ± 0.05	1025.88 ± 0.05	1018.19 ± 0.04	1010.37 ± 0.04	35.9 ± 0.2	35.52 ± 0.2	35.14 ± 0.2	34.75 ± 0.2
x1 = 1	1032.69 ± 0.05	1025.21 ± 0.05	1017.51 ± 0.04	1009.78 ± 0.04	35.74 ± 0.2	35.35 ± 0.2	34.96 ± 0.2	34.6 ± 0.2

— the NIST ThermoML archive (doi:10.1016/j.fluid.2014.12.040)
